Key:
[1] = test system: Sp1, Sp3, and Sp4 proteins; experiment: Western blot of Sp1, Sp3 and Sp4 protein expression in Panc-1 cells; assay type: cell-based; settings: for order of potency for decreased expression of Sp1, Sp3, and Sp4 proteins / Sp1, Sp3, and Sp4 protein expression: 50 μM; for Sp1, Sp3, and Sp4 protein expression: Western blot, vs DMSO
[2] = test system: orthotopically implanted human pancreatic L3.6p1 cancer cells; experiment: Orthotopic pancreatic tumor model in athymic nude mice; settings: gemcitabine 50 mg/kg
Description: Median tumor volumes (FIG. 8A) and weights (FIG. 8B) in athymic nude mice treated orthotopically with L3.6pl cells, and corn oil (control), tolfenamic acid (25 and 50 mg/kg), and gemcitabine (50 mg/kg) were determined. […] Tumors from the various treatment groups were analyzed for Sp1, Sp3, Sp4, and VEGF protein expression by Western blot analysis. […] Immunostaining is shown for VEGF (FIG. 8D), and CD31 (FIG. 8E). Pancreatic tumor sections from animals treated with solvent (control), gemcitabine (50 mg/kg) and tolfenamic acid (25 and 50 mg/kg) were immunostained with VEGF and CD31 antibodies.
Male athymic nude mice (NCI-nu) are purchased from the Animal Production Area of the National Cancer Institute Frederick Cancer Research and Development Center, housed and maintained under specific pathogen-free conditions in accordance with current regulations and standards of the United States Department of Agriculture. Injection of L3.6pl cells (with greater than 90% viability is performed as previously described (Bruns et al, 1999). Seven days after implantation of tumor cells into the pancreas of each mouse, five mice are killed to confirm the presence of tumor lesions.
Mice (10 animals per treatment group) are randomized to receive one of the following treatments: (1) thrice weekly oral administrations of vehicle solution which will serve as a control group; (2) thrice weekly oral administrations of at least three non-steroidal anti-inflammatory drugs at doses of 10, 25, and 50 mg/kg/day; (3) twice weekly intraperitoneal injections of 50, 75, and 100 mg/kg/day gemcitabine alone; and (4) combinations of gemcitabine and non-steroidal anti-inflammatory drugs. Mice are sacrificed on day 35 and body weights measured. Primary tumors in the pancreas are excised, measured, weighed. For immunohistochemistry (IHC) and hematoxylin and eosin (H&E) staining procedures, one part of the tumor tissue is fixed in formalin and embedded in paraffin, and another part is embedded in TISSUE-TEK® O.C.T. compound, rapidly frozen in liquid nitrogen, and stored at −70° C. Visible liver metastases are counted with the aid of a dissecting microscope, and the tissues processed for hematoxylin and eosin staining.
Paraffin-embedded tissues are used for identification of Sp proteins, VEGFR2p27 and vascular endothelial growth factor. Tissue sections ([…] thick) are mounted on positively charged SUPERFROST slides (Fischer Scientific, Co, Houston, Tex.) and dried overnight. Sections are deparaffinized in xylene and treated with a graded series of alcohol [100, 95, and 80% ethanol (v/v) in double distilled H2O] and rehydrated in phosphate buffered saline (pH 7.5). Tissues are treated with pepsin (Biomeda) for 15 min at 37° C. and washed with phosphate buffered saline. A positive reaction is visualized by incubating the slides with stable 3,3′-diaminobenzidine for 10-20 min. Sections are rinsed with distilled water, counterstained with Gill's hematoxylin for 1 min, and mounted with UNIVERSAL MOUNT (Research Genetics). […] Tumor sample lysates are also examined by western blot analysis for the same proteins.
The potential anti-tumorigenic and anti-angiogenic activity of tolfenamic acid against pancreatic tumors was investigated in an orthotopic athymic nude mouse model. L3.6pl cells were used for this study based on their aggressive growth and production of liver metastases (Bruns et al, 1999; Dubois et al, 1998).

[3] = test system: VEGF promoter constructs pVEGF1 and pVEGF2; experiment: VEGF promoter (pVEGF1/pVEGF2) luciferase transactivation in Panc-1 cells; assay type: cell-based
Description: Transfection of Panc-1 cells with pVEGF1 and pVEGF2 and treatment with 50 μM ampiroxicam and tolfenamic acid (FIGS. 2A, 2B) or diclofenac sodium (FIGS. 2C, 2D) with pVEGF1 or pVEGF2 constructs. Cells were transfected with pVEGF1 or pVEGF2 treated with DMSO, 50 μM ampiroxicam, tolfenamic acid, or diclofenac sodium, and luciferase activity determined. Transfection of L3.6pl cells with pVEGF1 (FIG. 2E) or pVEGF2 constructs (FIG. 2F). […] Panc-1 cells were transfected with pVEGF2, treated with 20, 40, 60 or 80 μM ampiroxicam or tolfenamic acid, and luciferase determined. Results presented herein are means ±SE for three separate determinations per treatment group, and significant (p<0.05) decrease in luciferase activity is indicated by an asterisk.
Cells are cultured in 6-well plates in 2 ml of DME/F12 medium supplemented with 5% fetal bovine serum. After 16-20 hr when cells are 50-60% confluent, reporter gene constructs are transfected using LIPOFECTAMINE™ reagent (Invitrogen, Carlsbad, Calif.). The effects of the selective non-steroidal anti-inflammatory drugs on transactivation are investigated in Panc1 and L3.6pl cells co-transfected with different VEGF constructs (500 ng). […] For proteasome inhibitor experiments, cells will be co-treated with 2 μM lactacystin, and for electrophoretic mobility shift assay (EMSA), nuclear extracts from Panc1 and L3.6pl cells are isolated as described, and aliquots will be stored at −80° C. until used (Abdelrahim et al, 2004; Abdelrahim et al, 2005).
Previous studies have shown COX-2 inhibitors or small interfering RNAs for Sp proteins decreased vascular endothelial growth factor expression in colon and pancreatic cells (Abdelrahim et al, 2005; Baker et al, 2002; Masferrer et al, 2000; Bouwman et al, 2002). The effects of DMSO, 50 μM tolfenamic acid and 50 μM ampiroxicam on vascular endothelial growth factor expression were initially investigated in Panc-1 cells transfected with the pVEGF1 and pVEGF2 constructs, which contain −2018 to +50 and −131 to +54 VEGF promoter inserts, respectively (FIGS. 2A and 2B).

Panc-1 cells = experiment: Cell proliferation assay, Panc-1 cells; assay type: cell-based; settings: for growth of Panc-1 pancreatic cancer cells: different concentrations, 6 days, cell counting
Description: FIGS. 6A-6E show comparative effects of non-steroidal anti-inflammatory drugs on Panc-1 cell proliferation and Sp protein expression. Effects of tolfenamic acid (FIG. 6A), ampiroxicam (FIG. 6B), naproxen (FIG. 6C), and diclofenac sodium (FIG. 6D) on Panc-1 cell proliferation. Panc-1 cells were treated with different concentrations of non-steroidal anti-inflammatory drugs for 6 days, and the number of cells were determined on days 2, 4, and 6 by cell counting techniques. […] Panc-1 cells were treated with DMSO, 150 μM ampiroxicam, 150 μM naproxen, and 50 μM tolfenamic acid for 48 hr, and levels of Sp proteins and the cleaved poly (ADP-ribose) polymerase (PARP) protein were determined in whole cell lysates by Western blot analysis. […] Panc1, Panc28 and L3.6pl cells are seeded in DMEM/F12 media with 5% FBS and treated the next day with either vehicle (DMSO) or with the indicated compounds' concentrations. Cells are counted at the indicated times using a Z1™ COULTER COUNTER® cell counter. Each experiment is carried out in triplicate and results expressed as means ±SD for each determination.

[4] = test system: Sp1, Sp3 and Sp4 in colon cancer cells; settings: cited from earlier work
[5] = test system: cleaved poly (ADP-ribose) polymerase (PARP) protein; experiment: Apoptosis: cleaved PARP in Panc-1 cells, Western blot; assay type: cell-based; settings: 150 μM, 48 hr
Description: Cells are washed once with phosphate buffered saline PBS and collected by scraping in 200 μL of lysis buffer [50 mM HEPES, 0.5M sodium chloride, 1.5 mM magnesium chloride, 1 mM EGTA, 10% (v/v) glycerol, 1% Triton X-100, 5 μL/ml of Protease Inhibitor Cocktail (Sigma)]. The lysates from the cells are incubated on ice for 1 hr with intermittent vortexing followed by centrifugation at 40,000 g for 10 min at 4° C. Equal amounts of protein (60 μg) from each treatment group are diluted with loading buffer, boiled and loaded onto 10 and 12.5% SDS-polyacrylamide gel. […] Samples are electrophoresed, transferred to membranes, and proteins detected by incubation with polyclonal primary antibodies Sp1, Sp3, Sp4, HDAC, VEGF (a-20), c-Met, surviving, VEGF, cleaved PARP, and β-tubulin (H-235) followed by blotting with appropriate horseradish peroxidase-conjugated secondary antibody as previously described (Abdelrahim et al, 2004). After autoradiography, band intensities are determined by a scanning laser densitometer (Sharp Electronics Corporation, Mahwah, N.J.) using ZERO-D SCANALYTICS software (Scanalytics Corporation, Billerica, Mass.).

[6] = bi-weekly intraperitoneal from day 7, sacrificed day 35

O=C(O)c1cc(-c2ccc(F)cc2F)ccc1O [diflunisal]
order of potency for decreased expression of Sp1, Sp3, and Sp4 proteins ([1]; 48 hr): tolfenamic acid>diclofenac˜diflunisal | Sp1, Sp3, and Sp4 protein expression ([1]; 48 hr): decreased expression of Sp1, Sp3, and Sp4 proteins

O=C(O)CCC(=O)c1ccc(-c2ccccc2)cc1 [fenbuten]
Sp1, Sp3, and Sp4 protein expression ([1]; 48 hr): had no effect

Nc1ccn([C@@H]2O[C@H](CO)[C@@H](O)C2(F)F)c(=O)n1 [gemcitabine, 2′, 2′-difluorodeoxycitidine]
immunostaining for vascular endothelial growth factor in tumor sections [2]: relatively greater staining | Body Weight Median [2, 6]: 24 g | Incidence Liver metastasis [2, 6]: did not affect the incidence of liver metastasis | Pancreatic Tumor Incidence (positive mice/mice injected) [2, 6]: 10/10 | Tumor Volume Median [2, 6]: 1186.8 mm^3 | Tumor Weight Median [2, 6]: 0.8 g | Incidence Liver metastasis ([2]; bi-weekly intraperitoneal from day 7, sacrificed day 35, listed as Gemcitabine): 5/10

O=C(O)Cc1ccccc1Nc1c(Cl)cccc1Cl [diclofenac sodium]
order of potency for decreased expression of Sp1, Sp3, and Sp4 proteins ([1]; 48 hr): tolfenamic acid>diclofenac˜diflunisal | Sp1, Sp3, and Sp4 protein expression ([1]; 48 hr): decreased expression of Sp1, Sp3, and Sp4 proteins | luciferase activity, pVEGF1 and pVEGF2 constructs ([3]; Panc-1 cells, 50 μM): decreased transactivation | relative potency in Panc-1 growth inhibition (Panc-1 cells; compared with ampiroxicam and naproxen): exhibited higher potencies | growth of Panc-1 pancreatic cancer cells (Panc-1 cells): decreased growth of Panc-1 pancreatic cancer cells

CS(=O)(=O)Nc1ccc([N+](=O)[O-])cc1Oc1ccccc1 [nimesulide]
levels of Sp1, Sp4 and Sp3 [4]: decreased levels of Sp1 and Sp4 (but not Sp3)

CC(=O)N[C@@H](CSC(=O)[C@]1([C@@H](O)C(C)C)NC(=O)[C@H](C)[C@@H]1O)C(=O)O [lactacystin]
effect on tolfenamic acid-induced Sp1, Sp3, and Sp4 protein degradation ([1]; 2 μM lactacystin plus 50 μM tolfenamic acid, 48 hr): significant inhibition of Sp1, Sp3, and Sp4 protein degradation | effect on tolfenamic acid-decreased transactivation of pVEGF2 ([3]; Panc-1 cells co-treated with tolfenamic acid and proteasome inhibitor): blocked in cells co-treated with lactacystin

Cc1ccc(C(=O)c2ccc(CC(=O)O)n2C)cc1 [tolmetin]
Sp1, Sp3, and Sp4 protein expression ([1]; 48 hr): had no effect

COc1ccc2c(c1)c(CC(=O)OCC(=O)O)c(C)n2C(=O)c1ccc(Cl)cc1 [acemetacin]
Sp1, Sp3, and Sp4 protein expression ([1]; 48 hr): had no effect

CC(C)Cc1ccc(C(C)C(=O)O)cc1 (centres unmarked) [ibuprofen]
Sp1, Sp3, and Sp4 protein expression ([1]; 48 hr): had no effect

COc1ccc2cc([C@H](C)C(=O)O)ccc2c1 [naproxen]
Sp1, Sp3, and Sp4 protein expression ([1]; 48 hr): had no effect | Sp protein degradation ([1]; 150 μM, 48 hr (concentration of comparable growth inhibition)): only tolfenamic acid induced protein degradation | growth of Panc-1 pancreatic cancer cells (Panc-1 cells): decreased growth of Panc-1 pancreatic cancer cells | poly (ADP-ribose) polymerase cleavage [5]: only tolfenamic acid induced protein degradation and poly (ADP-ribose) polymerase cleavage

N#Cc1ccc(C(c2ccc(C#N)cc2)n2cncn2)cc1 [letrozole]
Sp1, Sp3, and Sp4 protein expression ([1]; 48 hr): had no effect

From patent US20080261911A1, “Uses of diphenyl/diphenylamine carboxylic acids” (priority 2006, published 2008)
